We go through one compound from patent US20240308982A1, “DEGRADERS OF WILD-TYPE AND MUTANT FORMS OF LRRK2 AND USES THEREOF” (DANA-FARBER CANCER INSTITUTE, INC., priority 2021, published 2024).

The assay has as its system LRRK2. Description: Degradation of LRRK2 (immunoblots of treated cells). It is filed as cell-based. The conditions noted are these: 448T cells, immunoblot, concentrations 0 to 1000 nM. The procedure: Example 7: Degradation of LRRK2
Cell lines: Mouse embryonic fibroblast (MEF) WT, LRRK2 homozygous knock-ins in MEFs [R1441C; VPS35N(D620N); G2019S].
Tested concentrations of LRRK2 degraders: 0 nM; 10 nM; 30 nM; 100 nM; 300 nM; 1000 nM.
Experimental time points: 1 h; 6 h; 24 h and 48 h.
Complete growth medium: DMEM supplemented with 10% Fetal Bovine Serum; 1% pen/strep; 1% L-Glutamine; 1% MEM Non-essential Amino Acid Solution; 1% sodium pyruvate.
Treatment: WT MEF, and cells containing mutant LRRK2 (R1441C, VPS35N and G2019S) cells were plated at equal density into 6-well plates in a final volume of 3 mL of complete growth medium/well. Degraders were reconstituted in DMSO and used at 1:1000 in cells i.e., 3 μL/3 mL. Treatment began when cells were >60% confluent, starting from the longest, 48 h time point, followed by 24 h, 6 h and finally 1 h.
Cell lysis: Media were aspirated, plates were placed on ice and cells were washed with DPBS. Fifty (50) microliters of an ice-cold lysis buffer containing 50 mM Tris-HCl, pH 7.5, 1% (v/v) Triton X-100, 1 mM EGTA, 1 mM sodium orthovanadate, 50 mM NaF, 0.1% (v/v) 2-mercaptoethanol, 10 mM 2-glycerophosphate, 5 mM sodium pyrophosphate, 0.1 μg/mL microcystin-LR (Enzo Life Sciences), 270 mM sucrose and complete EDTA-free protease inhibitor cocktail (Sigma-Aldrich Cat #11836170001) were added per well. Lysates were centrifuged at 20 817 g (14,000 rpm) for 15 min at 4° C. and supernatants were used to determine protein concentration using Bradford assay (Pierce™ Coomassie (Bradford) Protein Assay Kit, Thermo Scientific Cat #23200) and for Western blot analysis.
Western blot analysis: Cell lysates were mixed with 4× SDS-PAGE sample buffer [50 mM Tris —HCl, pH 6.8, 2% (w/v) SDS, 10% (v/v) glycerol, 0.02% (w/v) Bromophenol Blue and 1% (v/v) 2-mercaptoethanol] to a final total protein concentration of 1 μg/μL and heated at 95° C. for 5 min. […]

Take `CC1(Oc2ccc3[nH]nc(-c4cc(N5CCN(CC6CN(c7ccc8c(c7)C(=O)N(C7CCC(=O)NC7=O)C8=O)C6)CC5)ncn4)c3c2)CC1` (stereo not drawn) [Compound 1, 2-(2,6-dioxopiperidin-3-yl)-5-(3-((4-(6-(5-(1-methylcyclopropoxy)-1H-indazol-3-yl)pyrimidin-4-yl)piperazin-1-yl)methyl)azetidin-1-yl)isoindoline-1,3-dione]: the DC50 turned out to be 33 nM, the Dmax is 60% and the “degrader of LRRK2” value is “potent degrader of LRRK2”.
